Article PMC11561307, “Ultra-inert lanthanide chelates as mass tags for multiplexed bioanalysis” (Nature Communications, 2024)
One block for each molecule: values may come before it.

Assays:
[1] = Epimerization of BocCys{Lu} diastereomers followed by 1H NMR; format: physicochemical; conditions: Supp. Fig. 22B, chirality inversion
Excerpt: The ClickZip chelates are inherently chiral, with defined rotation of the pendant arms (Λ or Δ) and of the four ethylene units in the cyclen ring (λλλλ or δδδδ), analogous to the DOTA system[15],[27],[34]. However, in contrast to DOTA, they only adopt enantiomeric Λλλλλ and Δδδδδ forms with twisted-square antiprismatic (TSA) arrangements (Fig. 4). To probe whether these enantiomers can interconvert, we modified {Lu} with L-cysteine residues to produce a pair of distinguishable diastereomers. […] The enantiomers of {M} can thus be regarded either as one or two compounds, depending on the time scale.
Fig. 4 Chirality of ClickZip chelates. Inherent chirality of the molecules is given by rotation of the pendant arms (Λ or Δ) and of the four ethylene units in the cyclen ring (λλλλ or δδδδ). In theory, four isomers are possible: two twisted square antiprismatic (TSA) enantiomers (Λλλλλ and Δδδδδ), and two square antiprismatic (SA) enantiomers (Δλλλλ and Λδδδδ). The ClickZip chelates exclusively adopt the TSA arrangements Λλλλλ and Δδδδδ, which were observed together in all solid-state structures as well as in solution. These two forms interconvert on the time scale of hours at 37 °C (Supplementary Fig. 22). Both enantiomers shown here were found in the crystal structure of [{Lu}]^+[ClO4]^−·5H2O. Thermal ellipsoids were set at 50% probability.
Supplementary Fig. 97. Synthesis of BocCys {Lu} and its epimer separation. In a glass vial (4 mL), [Cl{Lu}] +[T FA ]−·5.1H2O (4.0 mg; 4.2 µmol; 1.0 equiv.) was dissolved in DMSO (160 µL) followed by addition of N-Boc-cysteine (200 mM in DMSO; 31 µL; 6.2 µmol; 1.5 equiv.) and DIPEA (7.3 µL; 42 µmol; 10 equiv.) and the resulting solution was stirred for 16 h at 40 °C. Mixture (containing racemic mixture of BocCys {Lu} epimers) was then diluted with DMSO (0.5 mL) and filtered through syringe microfilter (RC). Filtrate was then directly purified by preparative HPLC […]
Fractions with epimer A (front part of the first eluting peak) and B (latter part of the second eluting peak) were quickly freezed and directly lyophilized. The resulting solids were dissolved in 500 μL of deuterated 50 mM MOPS/NaOD buffer (formal pH 7.4; obtained from MOPS/NaOH buffer of such pH by multiple evaporation/D2O resupply cycles). Epimer A (obtained in slightly higher epimeric purity than epimer B) was used for continuous 1H NMR epimerization study at 37 °C (Supplementary Fig. 22) while epimer B was incubated concurrently under identical conditions on heated magnetic stirrer. Conversion: ≥95% (based on Cl {Lu}).

[2] = Hydrolysis of ClickZip conjugates with model hexapeptide in HCl; format: physicochemical; conditions: 0.5 mM conjugate in 2 M HCl at 80 °C; HPLC 285 nm; Y value after 4 d
Procedure: While the acid-assisted dechelation of lanthanide DOTA chelates proceeds with a rate similar to hydrolysis of a peptide bond[24], the ultra-inert ClickZip chelates of Lu^III and near lanthanides should outlast complete hydrolysis of peptides and proteins. To test this, we prepared model hexapeptide conjugates with two ClickZip derivatives, HO2CPh{Ln} or HO2CBn{Ln}, which differed in their amide linkage to the peptide N-end (Fig. 6). Hydrolysis in 2 M HCl at 80 °C digested the peptide to individual amino acids; the chelates were cleaved from the peptide with no loss of the metal (Lu^III or Tm^III), or only small loss (5% for Y^III chelate).
Fig. 6 ClickZip and peptide bond stability comparison. Hydrolysis of ClickZip conjugates with model hexapeptide AYFHVG-NH2 connected by either aromatic or aliphatic amide bonds in strong acid. Conditions: 0.5 mM {Ln}PhCO-AYFHVG-NH2 or {Ln}BnCO-AYFHVG-NH2 in 2 M HCl at 80 °C. Analysis: λ = 285 nm (HPLC, H2O–MeCN, formic acid additive). […] The hydrolysis is faster for {Ln}BnCO-AYFHVG-NH2 species connected to the peptide via aliphatic amide moiety (n = 1) where HO2CBn{Ln} is formed quantitatively after 1 d. […] Nevertheless, prolonged reaction time led to quantitative formation of HO2CPh{Ln}. […]

abundance, % of epimer ([1]; 0.757 h): 89.6% | abundance, % of epimer ([1]; 0.913 h): 83.6% | abundance, % of epimer ([1]; 1.220 h): 84.0% | abundance, % of epimer ([1]; 1.376 h): 90.7% | abundance, % of epimer ([1]; 1.532 h): 83.1% | abundance, % of epimer ([1]; 1.735 h): 83.8% | abundance, % of epimer ([1]; 1.891 h): 74.9% | abundance, % of epimer ([1]; 2.467 h): 74.2% | abundance, % of epimer ([1]; 2.641 h): 78.5% | abundance, % of epimer ([1]; 2.985 h): 70.9% | abundance, % of epimer ([1]; 3.611 h): 62.0% | abundance, % of epimer ([1]; 4.238 h): 64.6% | abundance, % of epimer ([1]; 4.864 h): 63.0% | abundance, % of epimer ([1]; 5.489 h): 63.7% | abundance, % of epimer ([1]; 6.704 h): 52.8% | abundance, % of epimer ([1]; 7.918 h): 58.7% | abundance, % of epimer ([1]; 9.132 h): 55.2% | abundance, % of epimer ([1]; 10.346 h): 50.5% | abundance, % of epimer ([1]; 11.560 h): 49.5% | abundance, % of epimer ([1]; 12.775 h): 50.6% | abundance, % of epimer ([1]; 13.988 h): 49.2% | abundance, % of epimer ([1]; 17.779 h): 50.3%
Molecule: O=C(CN1CC2CC(=O)Nc3cccc1c32)Nc1ccc2c(c1)C[C@]1(C2)C(=O)Nc2ncccc21 (single isomer, unassigned) [epimer A]

Molecule: {Y}PhCO-AYFHVG-NH2 [model hexapeptide conjugate with {Y} tag, aromatic amide]
loss (leak) of metal ion during hydrolysis of hexapeptide conjugate [2]: ~ 5%
